In patent US20230033285A1, “Protease Inhibitors for Treatment of Coronavirus Infections” (The Scripps Research Institute, priority 2021, published 2023):
Like-named read-outs stand apart in the source and are kept apart here.

Tested on: SARS-CoV-2
Assay: microbe, parasite or virus in culture
Type: cell-based
Settings: read-out: EC50, μM (Hela)
[1] = Severe acute respiratory syndrome coronavirus 2, HeLa-ACE2 cells infected with SARS-CoV-2, 24 h, immunofluorescence of infected cells

For `COc1cccc2[nH]c(C(=O)N[C@@H](CC(C)C)C(=O)N[C@@H](C[C@@H]3CCNC3=O)C(=O)CO)cc12` [Compound 1, N-((S)-1-(((S)-4-hydroxy-3-oxo-1-((S)-2-oxopyrrolidin-3-yl)butan-2-yl)amino)-4-methyl-1-oxopentan-2-yl)-4-methoxy-1H-indole-2-carboxamide], the EC50 [1] was 0.2 to 0.5 µM.
`CC(C)C[C@H](NC(=O)C(=O)Nc1ccccc1)C(=O)N[C@@H](C[C@@H]1CCNC1=O)C(=O)CO` [Compound 2, N^1-((S)-1-(((S)-4-hydroxy-3-oxo-1-((S)-2-oxopyrrolidin-3-yl)butan-2-yl)amino)-4-methyl-1-oxopentan-2-yl)-N^2-phenyloxalamide] gave an EC50 [1] greater than 1 µM.
`CCCCCCCCCCCCCCC(=O)OCC(=O)[C@H](C[C@@H]1CCNC1=O)NC(=O)[C@H](CC(C)C)NC(=O)C(=O)Nc1ccccc1F` [Compound 4, (S)-3-((S)-2-(2-((2-fluorophenyl)amino)-2-oxoacetamido)-4-methylpentanamido)-2-oxo-4-((S)-2-oxopyrrolidin-3-yl)butyl pentadecanoate] showed an EC50 [1] of 0.2 to 0.5 µM.
`CC(C)C[C@H](NC(=O)C(=O)Nc1ccccc1F)C(=O)N[C@@H](C[C@@H]1CCNC1=O)C(=O)COC(=O)C1CCC(N2CCCCC2)CC1` (stereo partly drawn) [Compound 5, (S)-3-((S)-2-(2-((2-fluorophenyl)amino)-2-oxoacetamido)-4-methylpentanamido)-2-oxo-4-((S)-2-oxopyrrolidin-3-yl)butyl 4-(piperidin-1-yl)cyclohexane-1-carboxylate] was tested, and the EC50 [1] was 0.2 to 0.5 µM.
Compound `CC(C)C[C@H](NC(=O)C(=O)Nc1ccccc1F)C(=O)N[C@@H](C[C@@H]1CCNC1=O)C(=O)COC(=O)C1CCN(C2CCCCC2)CC1` [Compound 6, (S)-3-((S)-2-(2-((2-fluorophenyl)amino)-2-oxoacetamido)-4-methylpentanamido)-2-oxo-4-((S)-2-oxopyrrolidin-3-yl)butyl 1-cyclohexylpiperidine-4-carboxylate] has an EC50 [1] of 0.05 to 0.2 µM.
With `COc1ccccc1NC(=O)C(=O)N[C@@H](CC(C)C)C(=O)N[C@@H](C[C@@H]1CCNC1=O)C(=O)CO` [Compound 7] the EC50 [1] was greater than 1 µM.
`Cc1ccccc1NC(=O)C(=O)N[C@@H](CC1CCCCC1)C(=O)N[C@@H](C[C@@H]1CCNC1=O)C(=O)CO` [Compound 8, N^1-((S)-3-cyclohexyl-1-(((S)-4-hydroxy-3-oxo-1-((S)-2-oxopyrrolidin-3-yl)butan-2-yl)amino)-1-oxopropan-2-yl)-N^2-(o-tolyl)oxalamide] was tested, and the EC50 [1] was 0.2 to 0.5 µM.
`COc1cccc(NC(=O)C(=O)N[C@@H](CC(C)C)C(=O)N[C@@H](C[C@@H]2CCNC2=O)C(=O)CO)c1` [Compound 9] showed an EC50 [1] of 0.05 to 0.2 µM.
In the case of `CC(C)C[C@H](NC(=O)Nc1ccccc1F)C(=O)N[C@@H](C[C@@H]1CCNC1=O)C(=O)CO` [Compound 10, (S)-2-(3-(2-fluorophenyl)ureido)-N-((S)-4-hydroxy-3-oxo-1-((S)-2-oxopyrrolidin-3-yl)butan-2-yl)-4-methylpentanamide], the EC50 [1] was greater than 1 µM.
`Cc1cccc(C)c1NC(=O)C(=O)N[C@@H](CC(C)C)C(=O)N[C@@H](C[C@@H]1CCNC1=O)C(=O)COC(=O)C(=O)c1ccccc1` [Compound 11, (S)-3-((S)-2-(2-((2,6-dimethylphenyl)amino)-2-oxoacetamido)-4-methylpentanamido)-2-oxo-4-((S)-2-oxopyrrolidin-3-yl)butyl 2-oxo-2-phenylacetate] was tested, and the EC50 [1] was 0.05 to 0.2 µM.
In the case of `Cc1cccc(C)c1NC(=O)C(=O)N[C@@H](CC(C)C)C(=O)N[C@@H](C[C@@H]1CCNC1=O)C(=O)CO` [Compound 12, N^1-(2,6-dimethylphenyl)-N^2-((S)-1-(((S)-4-hydroxy-3-oxo-1-((S)-2-oxopyrrolidin-3-yl)butan-2-yl)amino)-4-methyl-1-oxopentan-2-yl)oxalamide], the EC50 [1] was greater than 1 µM.
In the case of `Cc1cccc(C)c1NC(=O)C(=O)N[C@@H](CC(C)C)C(=O)NC(C[C@@H]1CCNC1=O)C(=O)CO` (stereo partly drawn) [Compound 13, N^1-(2,6-dimethylphenyl)-N^2-((2S)-1-((4-hydroxy-3-oxo-1-((S)-2-oxopyrrolidin-3-yl)butan-2-yl)amino)-4-methyl-1-oxopentan-2-yl)oxalamide], the EC50 [1] was 0.2 to 0.5 µM.
In the case of `CC(C)C[C@H](NC(=O)C(=O)NC1CCCCC1)C(=O)N[C@@H](C[C@@H]1CCNC1=O)C(=O)CO` [Compound 14, N^1-cyclohexyl-N^2-((S)-1-(((S)-4-hydroxy-3-oxo-1-((S)-2-oxopyrrolidin-3-yl)butan-2-yl)amino)-4-methyl-1-oxopentan-2-yl)oxalamide], the EC50 (Severe acute respiratory syndrome coronavirus 2, HeLa-ACE2, 24 h) was greater than 1 µM.
Compound `COc1cccc(OC)c1NC(=O)C(=O)N[C@@H](CC(C)C)C(=O)N[C@@H](C[C@@H]1CCNC1=O)C(=O)CO` [Compound 15, N^1-(2,6-dimethoxyphenyl)-N^2-((S)-1-(((S)-4-hydroxy-3-oxo-1-((S)-2-oxopyrrolidin-3-yl)butan-2-yl)amino)-4-methyl-1-oxopentan-2-yl)oxalamide] has an EC50 [1] greater than 1 µM.
`COc1cccc(C)c1NC(=O)C(=O)N[C@@H](CC(C)C)C(=O)N[C@@H](C[C@@H]1CCNC1=O)C(=O)CO` [Compound 16, N^1-((S)-1-(((S)-4-hydroxy-3-oxo-1-((S)-2-oxopyrrolidin-3-yl)butan-2-yl)amino)-4-methyl-1-oxopentan-2-yl)-N^2-(2-methoxy-6-methylphenyl)oxalamide] was tested, and the EC50 [1] was 0.2 to 0.5 µM.
Compound `CCc1cccc(CC)c1NC(=O)C(=O)N[C@@H](CC(C)C)C(=O)N[C@@H](C[C@@H]1CCNC1=O)C(=O)CO` [Compound 17, N^1-(2,6-diethylphenyl)-N^2-((S)-1-(((S)-4-hydroxy-3-oxo-1-((S)-2-oxopyrrolidin-3-yl)butan-2-yl)amino)-4-methyl-1-oxopentan-2-yl)oxalamide] has an EC50 [1] of less than 0.05 µM.
Compound `CCCCCCC(=O)OCC(=O)[C@H](C[C@@H]1CCNC1=O)NC(=O)[C@H](CC(C)C)NC(=O)C(=O)NC1CCCCC1` [Compound 18, (S)-3-((S)-2-(2-(cyclohexylamino)-2-oxoacetamido)-4-methylpentanamido)-2-oxo-4-((S)-2-oxopyrrolidin-3-yl)butyl heptanoate] has an EC50 [1] of 0.05 to 0.2 µM.
With `CCCCCCC(=O)OCC(=O)[C@H](C[C@@H]1CCNC1=O)NC(=O)[C@H](CC1CCCCC1)NC(=O)C(=O)NC1CCCCC1` [Compound 19, (S)-3-((S)-3-cyclohexyl-2-(2-(cyclohexylamino)-2-oxoacetamido)propanamido)-2-oxo-4-((S)-2-oxopyrrolidin-3-yl)butyl heptanoate] the EC50 [1] was 0.2 to 0.5 µM.
Compound `Cc1ccccc1NC(=O)C(=O)N[C@@H](Cc1ccccc1F)C(=O)N[C@@H](C[C@@H]1CCNC1=O)C(=O)CO` [Compound 20, N^1-((S)-3-(2-fluorophenyl)-1-(((S)-4-hydroxy-3-oxo-1-((S)-2-oxopyrrolidin-3-yl)butan-2-yl)amino)-1-oxopropan-2-yl)-N^2-(o-tolyl)oxalamide] has an EC50 [1] greater than 1 µM.
Compound `CC(C)C[C@H](NC(=O)C(=O)Nc1ccccc1F)C(=O)N[C@@H](C[C@@H]1CCCNC1=O)C(=O)CO` [Compound 21, N^1-(2-fluorophenyl)-N^2-((S)-1-(((S)-4-hydroxy-3-oxo-1-((S)-2-oxopiperidin-3-yl)butan-2-yl)amino)-4-methyl-1-oxopentan-2-yl)oxalamide] has an EC50 [1] of 0.05 to 0.2 µM.
`CC(C)(C)C[C@H](NC(=O)C(=O)NC12CC(F)(C1)C2)C(=O)N[C@@H](C[C@@H]1CCNC1=O)C(=O)CO` [Compound 22, N^1-(3-fluorobicyclo[1.1.1]pentan-1-yl)-N^2-((S)-1-(((S)-4-hydroxy-3-oxo-1-((S)-2-oxopyrrolidin-3-yl)butan-2-yl)amino)-4,4-dimethyl-1-oxopentan-2-yl)oxalamide] showed an EC50 [1] of 0.2 to 0.5 µM.
Compound `Cc1ccc(C2(NC(=O)C(=O)N[C@@H](CC(C)C)C(=O)N[C@@H](C[C@@H]3CCNC3=O)C(=O)CO)CC2)cc1` [Compound 23] has an EC50 [1] of 0.5 to 1 µM.
`O=C(Nc1ccccc1F)C(=O)N[C@@H](CC1CCCCC1)C(=O)N[C@@H](C[C@@H]1CCCNC1=O)C(=O)CO` [Compound 24, N^1-((S)-3-cyclohexyl-1-(((S)-4-hydroxy-3-oxo-1-((S)-2-oxopiperidin-3-yl)butan-2-yl)amino)-1-oxopropan-2-yl)-N^2-(2-fluorophenyl)oxalamide] showed an EC50 [1] of 0.05 to 0.2 µM.
With `O=C(Nc1ccccc1F)C(=O)N[C@@H](CC1CCCCC1)C(=O)N[C@H](C[C@@H]1CCCNC1=O)C(=O)CO` [Compound 25, N^1-((S)-3-cyclohexyl-1-(((R)-4-hydroxy-3-oxo-1-((S)-2-oxopiperidin-3-yl)butan-2-yl)amino)-1-oxopropan-2-yl)-N^2-(2-fluorophenyl)oxalamide] the EC50 [1] was 0.05 to 0.2 µM.
Compound `CC(C)C[C@H](NC(=O)C(=O)NCC(F)(F)F)C(=O)N[C@@H](C[C@@H]1CCNC1=O)C(=O)CO` [Compound 26] has an EC50 [1] greater than 1 µM.
`Cc1ccccc1NC(=O)C(=O)N[C@@H](CC(C)C)C(=O)N[C@@H](C[C@@H]1CCCNC1=O)C(=O)CO` [Compound 27, N^1-((S)-1-(((S)-4-hydroxy-3-oxo-1-((S)-2-oxopiperidin-3-yl)butan-2-yl)amino)-4-methyl-1-oxopentan-2-yl)-N^2-(o-tolyl)oxalamide] was tested, and the EC50 [1] was 0.05 to 0.2 µM.
`CCc1cccc(CC)c1NC(=O)C(=O)N[C@@H](CC(C)C)C(=O)N[C@@H](C[C@@H]1CCCNC1=O)C(=O)CO` [Compound 28, N^1-(2,6-diethylphenyl)-N^2-((S)-1-(((S)-4-hydroxy-3-oxo-1-((S)-2-oxopiperidin-3-yl)butan-2-yl)amino)-4-methyl-1-oxopentan-2-yl)oxalamide] gave an EC50 [1] of less than 0.05 µM.
In the case of `CC(C)C[C@H](NC(=O)C(=O)NC1(C)CC1)C(=O)N[C@@H](C[C@@H]1CCCNC1=O)C(=O)CO` [Compound 29, N^1-((S)-1-(((S)-4-hydroxy-3-oxo-1-((S)-2-oxopiperidin-3-yl)butan-2-yl)amino)-4-methyl-1-oxopentan-2-yl)-N^2-(1-methylcyclopropyl)oxalamide], the EC50 [1] was greater than 1 µM.
In the case of `O=C(Nc1ccccc1F)C(=O)N1C[C@@H]2CCC[C@@H]2[C@H]1C(=O)N[C@@H](C[C@@H]1CCNC1=O)C(=O)CO` [Compound 30, (1S,3aR,6aS)-2-(2-((2-fluorophenyl)amino)-2-oxoacetyl)-N-((S)-4-hydroxy-3-oxo-1-((S)-2-oxopyrrolidin-3-yl)butan-2-yl)octahydrocyclopenta[c]pyrrole-1-carboxamide], the EC50 [1] was 0.05 to 0.2 µM.
